Experimental data from EP0768085A1, “ANTIBACTERIAL AGENT” (DAIICHI PHARMACEUTICAL CO., LTD., priority 1994, dated 1996).
Values after ≈ are worked out from the molar mass of the structure shown. Values belong to the molecule of their own block, whether it stands above or below them.

Experiments:
Type in all cases: cell-based
[1] = tested on: Staphylococcus aureus (209-P); assay: Antibacterial activity (IC), agar as in Example 8 (Example 15, Table 48); settings: 18 h
Description: (§1) The antibacterial action was evaluated by the inhibitory concentration (hereinafter abbreviated as IC) at which propagation of the bacteria cultured at 37°C for 18 hours was inhibited. Inhibition was determined by the turbidity of the medium. The expressions "IC≤100", "≤10", and "≤1" indicate that MIC-equivalent values obtained at the succesive […] dilution of the sample are 100-10 µg/ml, 10-1 µg/ml, and not more than 1 µg/ml, respectively. […] (In the subsequent Examples, the same rule applies correspondingly.) Table 39
(§2) A suitable amount of a sample was dissolved in dimethylsulfoxide (DMSO), after which the resulting solution was diluted with the same amount of sterilized distilled water to prepare a bulk sample of 1,000 µg/ml. Separately, a bacterial liquid for the test (methicillin-resistant Staphylococcus aureus (MRSA) isolated from humans) which had been cultured in Mueller-Hinton broth (product of DIFCO) was prepared and inoculated to a Mueller-Hinton agar (product of DIFCO) containing the sample so that the final inoculation amount of 10^6 CFU/ml was achieved. The final concentrations of the samples were 100, 10, and 1 µg/ml.
(§3) After culturing at 37°C for 18 hours, the antibacterial activity was evaluated in terms of IC in a manner similar to that described in Example 4.
The bacterium used for the test was Staphylococcus aureus (209-P).

[2] = tested on: Pasteurella multocida (Kobe-6); assay: Antibacterial activity (IC), agar as in Example 8 (Example 17, Table 50); settings: 18 h, origin pig
Description: as §1, §2, §3
In a manner similar to that described in Example 8, antibacterial activity of the invention compound was determined. The bacterium used for the test was Pasteurella Kobe-6 (origin: pig, Pasteurella multocida).

[3] = tested on: Streptococcus aureus (TI-1); assay: Antibacterial activity (IC), agar as in Example 8 (Example 16, Table 49); settings: 18 h
Description: as §1, §2, §3
In a manner similar to that described in Example 8, antibacterial activity of the invention compound was determined. The bacterium used for the test was […] aureus (TI-1).

[4] = tested on: Staphylococcus aureus 209-P; assay: Antibacterial activity (IC), Mueller-Hinton broth, 96-well microplate (Example 4, Table 39); settings: 37°C, 18 hours
Description: (§4) A suitable amount of a sample was dissolved in dimethylsulfoxide (DMSO), and the resultant solution was diluted with the same amount of sterilized distilled water to prepare a bulk sample of 1,000 µg/ml. Mueller-Hinton broth (product of DIFCO) was dispensed into each well of 96-well microplate. Thereafter, the bulk specimen was added to the first well of a row, and successively diluted (10-fold each time) with sterilized distilled water. Separately, a bacterial cell suspension for the test (Staphylococcus aureus 209-P) which had been cultured in the above-mentioned broth overnight at 37°C was inoculated to each well so that the final inoculation amount of 10^6 CFU/ml was attained. The final concentrations of the samples were 100, 10, and 1 µg/ml.
as §1

[5] = tested on: Staphylococcus aureus TI-1; assay: Antibacterial activity (IC), broth microplate as in Example 4 (Example 5, Table 40); settings: TI1, 18 h
Description: as §4, §1
In a manner similar to that described in Example 4, antibacterial activity of the invention compound was determined. The bacterium used for the test was Staphylococcus aureus TI-1.

Pasteurella from fish = assay: Antibacterial activity (IC), agar as in Example 8, media with 1.5% NaCl, 25°C (Example 20, Tables 53-55); settings: Pasteurella piscicida KP94-02
Description: as §1, §2, §3
(§5) In a manner similar to that described in Example 8, antibacterial activity of a variety of ketonitrile derivatives shown in Tables 53-55 was measured. The bacteria used for the test were Enterococcus and Pasteurella from fish. The culture conditions were such that the media contained 1.5% NaCl, and the culture temperature was 25°C.

Enterococcus from fish = assay: as above
Description: as §1, §2, §3, §5

MIC [1]: ≤ 1 µg/mL
MIC [2]: 10 to 100 µg/mL (≈ 17.8 to 178 µM)
MIC [3]: ≤ 1 µg/mL
SMILES: CC(Oc1cc(Oc2ccc(C(F)(F)F)cc2Cl)ccc1Cl)C(=O)C(C#N)c1ccc(Cl)cc1Cl (stereo not drawn) [compound 151]

MIC [4]: 1 to 10 µg/mL (≈ 1.64 to 16.4 µM)
SMILES: CC(Oc1ccc(Oc2ncc(C(F)(F)F)cc2Cl)cc1)C(=O)C(C#N)C(=O)N(Cc1ccccc1)Cc1ccccc1 (stereo not drawn) [Compound No. 38, 4-[4-(3-chloro-5-trifluoromethylpyridyloxy)phenoxy]-2-dibenzylamidecarbonile-3-oxopentanitrile]

MIC [1]: 10 to 100 µg/mL (≈ 19.4 to 194 µM)
MIC [3]: 10 to 100 µg/mL (≈ 19.4 to 194 µM)
SMILES: CC(Oc1cc(Oc2ccc(C(F)(F)F)cc2Cl)ccc1Cl)C(=O)C(C#N)C(=O)N1CCCC1 (stereo not drawn) [compound 169]

MIC [1]: 10 to 100 µg/mL (≈ 18.8 to 188 µM)
SMILES: CC(Oc1cc(Oc2ccc(C(F)(F)F)cc2Cl)ccc1Cl)C(=O)C(C#N)C(=O)N1CCOCC1 (stereo not drawn) [compound 172]

MIC [5]: 10 to 100 µg/mL (≈ 20.7 to 207 µM)
MIC [4]: 10 to 100 µg/mL (≈ 20.7 to 207 µM)
SMILES: CC(Oc1ccc(Oc2nc3ccccc3s2)cc1)C(=O)C(C#N)c1ccc(Cl)cc1Cl (stereo not drawn) [Compound No. 11]

MIC [5]: 1 to 10 µg/mL (≈ 2.17 to 21.7 µM)
MIC [4]: 10 to 100 µg/mL (≈ 21.7 to 217 µM)
SMILES: CC(Oc1ccc(Oc2ncc(C(F)(F)F)cc2Cl)cc1)C(=O)C(C#N)c1ccccc1 (stereo not drawn) [compound 18]

MIC [4]: 10 to 100 µg/mL (≈ 18.4 to 184 µM)
SMILES: CC(Oc1ccc(Oc2ncc(C(F)(F)F)cc2Cl)cc1)C(=O)C(C#N)C(=O)N1CCCc2ccccc21 (stereo not drawn) [compound 40]

MIC [5]: 10 to 100 µg/mL (≈ 20.1 to 201 µM)
MIC [4]: 10 to 100 µg/mL (≈ 20.1 to 201 µM)
SMILES: CC(Oc1ccc(Oc2ncc(C(F)(F)F)cc2Cl)cc1)C(=O)C(C#N)c1ccc(F)cc1F (stereo not drawn) [compound 25]

MIC [5]: 1 to 10 µg/mL (≈ 1.88 to 18.8 µM)
MIC [4]: 10 to 100 µg/mL (≈ 18.8 to 188 µM)
SMILES: CC(Oc1ccc(Oc2nc(Cl)c(Cl)cc2Cl)cc1)C(=O)C(C#N)c1ccc(Cl)cc1Cl (stereo not drawn) [compound 7]

MIC [1]: 1 to 10 µg/mL (≈ 2.02 to 20.2 µM)
MIC [2]: 10 to 100 µg/mL (≈ 20.2 to 202 µM)
SMILES: CC(Oc1cc(Oc2ccc(C(F)(F)F)cc2Cl)ccc1Cl)C(=O)C(C#N)c1ccccc1 (stereo not drawn) [compound 156]

MIC [5]: 10 to 100 µg/mL (≈ 22.4 to 224 µM)
MIC [4]: 10 to 100 µg/mL (≈ 22.4 to 224 µM)
SMILES: N#CC(C(=O)COc1ccc(Oc2ccc(C(F)(F)F)cn2)cc1)c1cccc(Cl)c1 (stereo not drawn) [Compound No. 13]

MIC [4]: 10 to 100 µg/mL (≈ 18.3 to 183 µM)
SMILES: CCN(Cc1ccccc1)C(=O)C(C#N)C(=O)C(C)Oc1ccc(Oc2ncc(C(F)(F)F)cc2Cl)cc1 (stereo not drawn) [compound 39]

SMILES: CC(Oc1cc(Oc2ccc(C(F)(F)F)cc2Cl)ccc1[N+](=O)[O-])C(=O)C(C#N)C(=O)N1CCCCC1 (stereo not drawn) [compound 135]
MIC (Pasteurella from fish): 10 to 100 µg/mL (≈ 18.5 to 185 µM)
IC (Enterococcus from fish; Enterococcus Seriolicida HI): ≤100 (MIC-equivalent values obtained at the succesive 2-fold dilution of the sample are 100-10 µg/ml)
IC (Enterococcus from fish; Enterococcus Seriolicida KG86050): ≤100 (MIC-equivalent values obtained at the succesive 2-fold dilution of the sample are 100-10 µg/ml)
IC (Enterococcus from fish; Enterococcus Seriolicida MS89060): ≤100 (MIC-equivalent values obtained at the succesive 2-fold dilution of the sample are 100-10 µg/ml)
IC (Enterococcus from fish; Enterococcus Seriolicida MS89064): ≤100 (MIC-equivalent values obtained at the succesive 2-fold dilution of the sample are 100-10 µg/ml)
IC (Enterococcus from fish; Enterococcus Seriolicida MS89066): ≤100 (MIC-equivalent values obtained at the succesive 2-fold dilution of the sample are 100-10 µg/ml)
IC (Enterococcus from fish; Enterococcus Seriolicida MS89068): ≤100 (MIC-equivalent values obtained at the succesive 2-fold dilution of the sample are 100-10 µg/ml)
IC (Enterococcus from fish; Enterococcus Seriolicida SE94-001): ≤100 (MIC-equivalent values obtained at the succesive 2-fold dilution of the sample are 100-10 µg/ml)
MIC (Enterococcus from fish; Enterococcus Seriolicida SE94-002): 10 to 100 µg/mL (≈ 18.5 to 185 µM)
IC (Enterococcus from fish; Enterococcus Seriolicida SE94-003): ≤100 (MIC-equivalent values obtained at the succesive 2-fold dilution of the sample are 100-10 µg/ml)
IC (Enterococcus from fish; Enterococcus Seriolicida SE94-004): ≤100 (MIC-equivalent values obtained at the succesive 2-fold dilution of the sample are 100-10 µg/ml)
IC (Enterococcus from fish; Enterococcus Seriolicida SE94-005): ≤100 (MIC-equivalent values obtained at the succesive 2-fold dilution of the sample are 100-10 µg/ml)
MIC [2]: 10 to 100 µg/mL (≈ 18.5 to 185 µM)

MIC [5]: 1 to 10 µg/mL (≈ 2.02 to 20.2 µM)
MIC [4]: 10 to 100 µg/mL (≈ 20.2 to 202 µM)
SMILES: CC(Oc1ccc(Oc2ccc(C(F)(F)F)cn2)cc1)C(=O)C(C#N)c1cccc(C(F)(F)F)c1 (stereo not drawn) [compound 8]

MIC [5]: 1 to 10 µg/mL (≈ 1.93 to 19.3 µM)
SMILES: CC(Oc1ccc(Oc2ccc(C(F)(F)F)cc2Cl)cc1)C(=O)C(C#N)C(=O)N(C)c1ccccc1 (stereo not drawn) [Compound No. 36, 4-[4-(2-chloro-4-trifluoromethylphenoxy)phenoxy]-2-methylphenylamidecarbonile-3-oxopentanitrile]

MIC [1]: ≤ 1 µg/mL
MIC [2]: 1 to 10 µg/mL (≈ 1.78 to 17.8 µM)
MIC [3]: ≤ 1 µg/mL
SMILES: CC(Oc1cc(Oc2ccc(C(F)(F)F)cc2Cl)ccc1Cl)C(=O)C(C#N)c1ccc(Cl)c(Cl)c1 (stereo not drawn) [compound 152]

MIC [5]: 1 to 10 µg/mL (≈ 2.08 to 20.8 µM)
MIC [4]: 10 to 100 µg/mL (≈ 20.8 to 208 µM)
SMILES: N#CC(C(=O)COc1ccc(Oc2ncc(C(F)(F)F)cc2Cl)cc1)c1cccc(Cl)c1 (stereo not drawn) [compound 12]
